Reference: patent publication EP1913949A1, “Modulation of substrate preference by selective translocation of the major cardiac glucose transporter Glut4” (priority 2006, dated 2008)
Read-outs that look alike come from different tables or passages of the source.

Key:
[1] = tested on: heart-derived giant vesicles; experiment: glucose uptake by giant vesicles (intrinsic transporter activity); type: biochemical, rat; details: for glucose uptake into giant vesicles inhibited: inhibitor 10 µM
p38 MAPK [2] = tested on: p38 MAPK
cardiac myocytes [3] = experiment: tissue or blood; details: Rattus norvegicus
CD36 = type: cell-based, rat
FABPpm = type: cell-based, rat
Akt/PKB = type: cell-based, rat; details: for effect on Akt/PKB phosphorylation: 20 min
cardiac myocytes [4] = details: for effect on LCFA uptake: in the absence or in the presence of insulin or arsenite, SB202190 (10 µM), PD98059 (10 µM), rapamycin (100 nM)
ACC [5] = tested on: ACC
cardiac myocytes [6] = tested on: cardiac myocytes
p38 MAPK [7] = experiment: cells; details: Rattus norvegicus, 20 min, read-out: increase in p38 MAPK phosphorylation
AMPK [8] = experiment: cells; details: Rattus norvegicus, 20 min, read-out: increase in phosphorylation of AMPK
ACC [9] = experiment: cells; details: Rattus norvegicus, 20 min, read-out: increase in phosphorylation of ACC
[10] = tested on: heart-derived giant vesicles; type: biochemical, rat
AMPK [11] = details: 20 min
[12] = read-out: basal glucose uptake inhibited
[13] = read-out: glucose uptake inhibited in cardiac myocytes
[14] = read-out: glucose uptake inhibited in the presence of arsenite
[15] = read-out: glucose uptake inhibited in the presence of insulin
[16] = 10 µM SB202190 added 20 min prior to 100 µM arsenite
[17] = SB202190, PD98059 10 µM, rapamycin 20 nM, wortmannin 200 nM, stimulus 100 nM insulin
[18] = SB202190, SB203580, PD98059 10 µM, rapamycin 20 nM, stimulus 100 µM arsenite
[19] = SB202190, PD98059 10 µM, rapamycin 20 nM, wortmannin 200 nM, stimulus 50 µM phenylephrine
[20] = SB202190, PD98059 10 µM, rapamycin 20 nM, wortmannin 200 nM, stimulus 100 µM arsenite
[21] = SB202190, PD98059 10 µM, rapamycin 20 nM, wortmannin 200 nM, stimulus 5 µM oligomycin
[22] = PD98059 (10 µM), rapamycin (100 nM), wortmannin (200 nM), no stimulus

For C[S+]([O-])c1ccc(-c2nc(-c3ccncc3)c(-c3ccc(F)cc3)[nH]2)cc1 (stereo not drawn) [SB203580], the “glucose uptake into giant vesicles inhibited” value ([1]; added 20 min prior) was -46%, the “inhibition of arsenite-stimulated p38 MAPK phosphorylation” value (p38 MAPK [2]) was “similarly potent in blocking” and the inhibition at 10 µM (cardiac myocytes [3]; [12]) was -56%. For the same compound, the inhibition at 10 µM (cardiac myocytes [3]; [13]) was -56%, the inhibition at 10 µM (cardiac myocytes [3]; [14]) was -57% and the inhibition at 10 µM (cardiac myocytes [3]; [15]) was -46%.

For Oc1ccc(-c2nc(-c3ccncc3)c(-c3ccc(F)cc3)[nH]2)cc1 [SB202190], the “glucose uptake into giant vesicles inhibited” value ([1]; added 20 min prior) was -27%, the “effect on subcellular distribution of CD36” value (CD36; [16]) was “did not influence” and the “effect on subcellular distribution of FABPpm” value (FABPpm; [16]) was “did not influence”. For the same compound, the “inhibition of insulin-induced Akt/PKB phosphorylation” value (Akt/PKB; [17]) was “did not affect”, the “effect on LCFA uptake” value (cardiac myocytes [4]) was “neither SB202190, nor PD98059 or rapamycin were able to influence” and the “effect on arsenite-induced GLUT4 translocation” value (GLUT4; [16]) was “did not affect”. For the same compound, the “inhibition of arsenite-stimulated p38 MAPK phosphorylation” value (p38 MAPK [2]; [18]) was “largely inhibited”, the “inhibition of phenylephrine-induced p42/44 ERK phosphorylation” value (p42/44 ERK; [19]) was “did not affect” and the “inhibition of arsenite-induced p70 S6K phosphorylation” value (p70 S6K; [20]) was “did not affect”. The “inhibition of oligomycin-induced ACC phosphorylation” value (ACC [5]; [21]) was “did not affect”, the inhibition at 10 µM (cardiac myocytes [3]; [12]) was -45% and the inhibition at 10 µM (cardiac myocytes [3]; [13]) was -33%. It also gave an inhibition at 10 µM (cardiac myocytes [3]; [14]) of -42% and an inhibition at 10 µM (cardiac myocytes [3]; [15]) of -33%.

COc1cccc(-c2cc(=O)c3ccccc3o2)c1N [PD98059] was tested, and the “effect on glucose uptake into giant vesicles” value ([1]; same concentrations as in cardiac myocyte studies, added 20 min prior) was “did not alter”, the “inhibition of insulin-induced Akt/PKB phosphorylation” value (Akt/PKB; [17]) was “did not inhibit” and the “effect on arsenite-stimulated glucose uptake” value (cardiac myocytes [6]; PD98059 (10 µM), rapamycin (100 nM), wortmannin (200 nM), 100 µM arsenite) was “neither PD98059 nor rapamycin affected glucose uptake”. The “effect on insulin-stimulated glucose uptake” value (cardiac myocytes [6]; PD98059 (10 µM), rapamycin (100 nM), wortmannin (200 nM), insulin) was “neither PD98059 nor rapamycin affected glucose uptake”, the “effect on basal glucose uptake” value (cardiac myocytes [6]; [22]) was “no effect” and the “effect on LCFA uptake” value (cardiac myocytes [4]) was “neither SB202190, nor PD98059 or rapamycin were able to influence”. For the same compound, the “inhibition of arsenite-stimulated p38 MAPK phosphorylation” value (p38 MAPK [2]; [18]) was “did not inhibit”, the “inhibition of phenylephrine-induced p42/44 ERK phosphorylation” value (p42/44 ERK; [19]) was “completely inhibited” and the “inhibition of arsenite-induced p70 S6K phosphorylation” value (p70 S6K; [20]) was “did not inhibit”. For the same compound, the “inhibition of oligomycin-induced ACC phosphorylation” value (ACC [5]; [21]) was “did not inhibit”.

CO[C@H]1C[C@@H]2CC[C@@H](C)[C@@](O)(O2)C(=O)C(=O)N2CCCC[C@H]2C(=O)O[C@H]([C@H](C)C[C@@H]2CC[C@@H](O)[C@H](OC)C2)CC(=O)[C@H](C)/C=C(\C)[C@@H](O)[C@@H](OC)C(=O)[C@H](C)C[C@H](C)/C=C/C=C/C=C/1C [rapamycin] was tested, and the “effect on basal glucose uptake” value (cardiac myocytes [6]; [22]) was “no effect”.

In the case of CC[C@H]1/C=C/C=C/C[C@@H](C)[C@H](O)[C@@](C)(O)C(=O)[C@@H](C)[C@H](O)[C@@H](C)C(=O)[C@@H](C)[C@H](O)[C@@H](C)/C=C/C(=O)O[C@@H]2[C@H](C)[C@H](CC1)O[C@]1(CC[C@H](C)[C@H](C[C@@H](C)O)O1)[C@H]2C [oligomycin], the “effect on Akt/PKB phosphorylation” value (Akt/PKB; 5 µM oligomycin or 100 µM arsenite) is reported as “did not increase”, the “effect on p42/44 ERK phosphorylation” value (p42/44 ERK; 20 min, 5 µM oligomycin) is reported as “did not increase” and the “effect on p70 S6K phosphorylation” value (p70 S6K; oligomycin) is reported as “did not enhance”. For the same compound, the fold induction at 5 µM (p38 MAPK [7]) was 5.7 ± 1.5, the fold induction at 5 µM (AMPK [8]) was > 10 and the fold induction at 5 µM (ACC [9]) was > 10. For the same compound, the fold induction at 5 µM (cardiac myocytes [3]; read-out: glucose uptake increased) was 2.9.

With COC[C@H]1OC(=O)c2coc3c2[C@@]1(C)C1=C(C3=O)[C@@H]2CCC(=O)[C@@]2(C)C[C@H]1OC(C)=O [wortmannin] the “effect on glucose uptake into giant vesicles” value [1] was “did not alter”, the “inhibition of insulin-induced Akt/PKB phosphorylation” value (Akt/PKB) was “completely blocked” and the “effect on arsenite-stimulated glucose uptake” value (cardiac myocytes [6]) was “completely failed to inhibit”. The “effect on basal glucose uptake” value (cardiac myocytes [6]) was “did not inhibit”, the “effect on insulin-stimulated glucose uptake” value (cardiac myocytes [6]) was “largely blocked” and the “effect on basal LCFA uptake” value (cardiac myocytes [4]) was “no effect”. For the same compound, the “effect on insulin-induced LCFA uptake” value (cardiac myocytes [4]) was “completely blocked”, the “inhibition of phenylephrine-induced p42/44 ERK phosphorylation” value (p42/44 ERK) was “unaltered” and the “inhibition of arsenite-induced p70 S6K phosphorylation” value (p70 S6K) was “completely blocked”. For the same compound, the “inhibition of oligomycin-induced ACC phosphorylation” value (ACC [5]) was “unaltered”.

For sodium arsenite, the “effect on glucose uptake into giant vesicles” value [1] was “did not influence”, the “effect on LCFA uptake into giant vesicles” value [10] was “did not influence” and the “contents of CD36 in the LDM- and PM fractions” value (CD36; 20 min) was “did not significantly influence”. For the same compound, the “distribution of FABPpm between the LDM and the PM fraction” value (FABPpm; 20 min) was “did not significantly influence”, the “effect on Akt/PKB phosphorylation” value (Akt/PKB) was “did not stimulate” and the deoxyglucose uptake (cardiac myocytes [6]) was “without a further increase”. The “effect of arsenite on glucose uptake in combination with oligomycin” value (cardiac myocytes [6]) was “retained its stimulatory action”, the “effect of arsenite on glucose uptake in insulin-stimulated cardiac myocytes” value (cardiac myocytes [6]) was “ineffective” and the deoxyglucose uptake stimulated (cardiac myocytes [6]; cardiac myocytes, 20 min, 100 µM) was 5.1 fold. The LCFA uptake (cardiac myocytes [4]) was “did not increase”, the “effect of arsenite on LCFA uptake in combination with insulin or oligomycin” value (cardiac myocytes [4]) was “did not significantly alter” and the “content of GLUT4 in the LDM fraction decreased” value (GLUT4; 20 min) was 44%. The “content of GLUT4 in the PM fraction increased” value (GLUT4; 20 min, 100 µM) was 1.7 fold, the “increase in p38 MAPK phosphorylation” value (p38 MAPK [2]; 20 min) was 7.8 ± 1.8 fold and the “increase in p42/44 ERK phosphorylation” value (p42/44 ERK; 20 min, 100 µM) was 2.3 ± 0.5 fold. For the same compound, the “increase in p70 S6K phosphorylation” value (p70 S6K; 20 min, 100 µM) was 3.3 ± 0.7 fold, the “effect on phosphorylation of AMPK” value (AMPK [11]) was “remained unaltered” and the “effect on phosphorylation of ACC” value (ACC [5]; 20 min) was “remained unaltered”.
